The values below come from US20090221554A1, “METHOD OF TREATING COGNITIVE IMPAIRMENT” (priority 2008, published 2009).

For assay [1], the system named is cognitive impairment induced by scopolamine. The assay is described as follows: Passive avoidance task, scopolamine-induced cognitive impairment in mice. The format is in vivo. The protocol:
Male mice of the ICR strain (Charles River Laboratories Japan, Inc.) at the ages of 8 to 9 weeks were used in the experiment. They were housed in a cage in group of 3 or 4 mice, in a room maintained at around 22° C. with a 12-h light/dark cycle. Food and water were available ad libitum. All animal care and treatments were conducted in accordance with the Guidelines for the Care and Use of Laboratory Animals established at the Central Research Laboratory, Zenyaku Kogyo Co., Ltd.
Compound 1 and donepezil were suspended in 1% carboxymethyl cellulose (CMC). […] For the coadministration studies of Compound 1 and donepezil, both drug suspensions were mixed together and this mixed suspension was injected. All drugs were prepared immediately before use and orally administered in a volume of 10 ml/kg.
The passive avoidance apparatus (Neuroscience Inc.) consisted of an illuminated chamber and a larger dark chamber. Two chambers were separated by a guillotine door. Oral administration of compound 1 at doses of 0.0001 mg/kg or 0.001 mg/kg and/or donepezil at doses of 0.01 and 0.1 mg/kg was given 60 min before the acquisition trial. […] Matched control group received vehicle only. In the acquisition trial, each mouse was placed in the illuminated chamber. Immediately after the entry into the dark chamber, the door was closed and inescapable scrambled electric shock (100 V, 0.4 mA, 1.5 sec) was delivered through the floor grid. Twenty-four h later, each mouse was placed in the illuminated chamber for retention trial. The interval between the placement in the illuminated chamber and the entry into the dark chamber was measured as step through latency (maximum 300 sec).
P level of <0.05 was considered indicative of statistical significance for the tests.

In assay [2] the test system is extracellular level of ACh in the hippocampus. The assay is described as follows: Extracellular level of acetylcholine (ACh) in the rat hippocampus (microdialysis, HPLC-ECD). It is filed as in vivo, rats. The conditions noted are these: vs 1% CMC. The protocol: Food and water were available ad libitum. All animal care and treatments were conducted in accordance with the Guidelines for the Care and Use of Laboratory Animals established at the Central Research Laboratory, Zenyaku Kogyo Co., Ltd.

`CN1[C@@H]2C[C@@H](OC(=O)[C@H](CO)c3ccccc3)C[C@H]1[C@@H]1O[C@@H]12` [scopolamine]: the step-through latency entry in assay [1] (1% CMC + scopolamine 1 mg/kg i.p. vs 1% CMC + saline control, P<0.01) was “markedly shorter”.

For the molecule `O=C1N=C2C=CC=CN2C12Cc1ccccc1C2` [compound 1, spiro[imidazo[1,2-a]pyridin-2(3H)-one-3,2′-indan]], in assay [2] (compound 1 0.001 mg/kg p.o.), the “extracellular level of ACh in the hippocampus” value is “did not significantly increase”. For the same molecule, the step-through latency entry was “did not significantly prolong” in assay [1] (compound 1 0.0001 mg/kg p.o. 60 min before acquisition, scopolamine 1 mg/kg i.p., retention trial 24 h, vs 1% CMC + scopolamine) and “prolonged” in assay [1] (compound 1 0.001 mg/kg p.o., scopolamine 1 mg/kg i.p., vs 1% CMC + scopolamine, P<0.05).

As for `COc1cc2c(cc1OC)C(=O)C(CC1CCN(Cc3ccccc3)CC1)C2` (stereo not shown) [donepezil], the “extracellular level of ACh in the hippocampus” value in assay [2] (donepezil 1 mg/kg p.o.) is listed as “did not significantly increase”. In addition, the step-through latency entry is recorded as “did not significantly prolong” in assay [1] (donepezil 0.01 mg/kg p.o., scopolamine 1 mg/kg i.p., vs 1% CMC + scopolamine) and “prolonged” in assay [1] (donepezil 0.1 mg/kg p.o., scopolamine 1 mg/kg i.p., vs 1% CMC + scopolamine, P<0.05).
